The values that follow come from US20250333407A1, “Compounds and Their Use for Treatment of Hemoglobinopathies” (Bristol-Myers Squibb Company, priority 2024, published 2025).

Holding throughout (format): cell-based
In one experiment the test system is HbF. Description: HbF HiBiT induction assay in HUDEP-2 cells. Particulars: HUDEP-2 cells with HiBiT tag in HBG1/2, 72 hours of treatment; area under the dose response curve, higher AUC = greater HbF induction. The method, boiled down: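 HUDEP-2 cells carrying a HiBiT tag on HBG1/2 were exposed to compounds for 72 h at 37° C, 5% CO2, in IMDM with EPO, hSCF, DOX, transferrin, insulin, heparin and 5% human plasma. HiBiT luminescence was read after lytic detection; HbF induction is expressed as dose-response AUC, alongside EC50 and Ymax.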
Background: HiBiT is a short tag that completes a luciferase, so light tracks the accessible tagged protein.

The next experiment has as its target T1, ZBTB7A (Homo sapiens, UniProt O95365+Q96SW2).
T1 construct: HUDEP-2 cells engineered to express a HiBiT tag in either the WIZ (Widely interspaced zinc finger) or ZBTB7A
The experiment in a line: HUDEP-2 ZBTB7A HiBiT degradation assay. Particulars: HiBiT-tagged ZBTB7A degradation in HUDEP-2 cells, 24 hours of treatment; read-out: ZBTB7A EC50. The essentials: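 HiBiT-tagged HUDEP-2 cells were pre-cultured 48 h in IMDM with EPO, SCF, doxycycline and 5% human plasma, then exposed to compounds at 1.0×10^6 cells/ml for 24 h at 37 °C. Nano-Glo HiBiT lytic luminescence, normalised to DMSO over 10 concentrations, gave EC50 and Y-min.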

The next experiment deals with T2, WIZ (Homo sapiens, UniProt O95785+Q96SW2).
T2 construct: HUDEP-2 cells engineered to express a HiBiT tag in either the WIZ (Widely interspaced zinc finger) or ZBTB7A
Description: HUDEP-2 WIZ HiBiT degradation assay. As to conditions: HiBiT-tagged WIZ degradation in HUDEP-2 cells, 24 hours of treatment; read-out: WIZ EC50. The essentials: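 HiBiT-tagged HUDEP-2 cells at 1.0×10^6 cells/ml in SFEM II with SCF, EPO, dexamethasone and doxycycline, treated 24 h at 37 °C with a 10-point series ([…]). Luminescence after HiBiT lytic detection, normalized to DMSO; EC50 and Y-min from fitted curves.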

Molecules are shown by their SMILES.

T1 sequence (O95365 whole entry): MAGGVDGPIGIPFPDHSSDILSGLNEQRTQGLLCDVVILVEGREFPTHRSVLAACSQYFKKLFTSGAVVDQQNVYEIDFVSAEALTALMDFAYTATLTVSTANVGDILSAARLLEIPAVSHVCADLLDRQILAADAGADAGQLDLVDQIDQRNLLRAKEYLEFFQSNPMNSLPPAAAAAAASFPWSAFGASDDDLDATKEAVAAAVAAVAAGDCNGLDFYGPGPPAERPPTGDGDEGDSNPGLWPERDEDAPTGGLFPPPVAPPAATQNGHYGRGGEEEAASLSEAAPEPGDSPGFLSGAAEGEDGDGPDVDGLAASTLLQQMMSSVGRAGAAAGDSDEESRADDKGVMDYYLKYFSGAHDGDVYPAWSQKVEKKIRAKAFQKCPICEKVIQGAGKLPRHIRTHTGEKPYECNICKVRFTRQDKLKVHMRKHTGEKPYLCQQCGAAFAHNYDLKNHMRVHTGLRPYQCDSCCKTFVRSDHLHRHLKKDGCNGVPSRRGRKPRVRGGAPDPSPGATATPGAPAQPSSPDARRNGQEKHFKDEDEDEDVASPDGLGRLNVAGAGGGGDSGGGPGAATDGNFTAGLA
T1 sequence (Q96SW2 whole entry): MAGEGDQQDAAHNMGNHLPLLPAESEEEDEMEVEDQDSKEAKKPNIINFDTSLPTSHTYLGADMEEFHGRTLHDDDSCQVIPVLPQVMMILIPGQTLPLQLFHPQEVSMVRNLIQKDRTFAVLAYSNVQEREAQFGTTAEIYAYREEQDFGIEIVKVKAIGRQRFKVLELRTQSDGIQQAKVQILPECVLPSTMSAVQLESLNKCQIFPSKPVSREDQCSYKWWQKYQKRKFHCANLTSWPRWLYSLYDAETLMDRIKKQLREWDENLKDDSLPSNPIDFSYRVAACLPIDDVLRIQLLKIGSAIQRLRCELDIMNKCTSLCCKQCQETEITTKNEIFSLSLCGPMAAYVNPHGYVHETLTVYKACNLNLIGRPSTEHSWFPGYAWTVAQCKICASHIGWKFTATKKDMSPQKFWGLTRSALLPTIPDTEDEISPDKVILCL
T1 sequence (Q16531 whole entry partner): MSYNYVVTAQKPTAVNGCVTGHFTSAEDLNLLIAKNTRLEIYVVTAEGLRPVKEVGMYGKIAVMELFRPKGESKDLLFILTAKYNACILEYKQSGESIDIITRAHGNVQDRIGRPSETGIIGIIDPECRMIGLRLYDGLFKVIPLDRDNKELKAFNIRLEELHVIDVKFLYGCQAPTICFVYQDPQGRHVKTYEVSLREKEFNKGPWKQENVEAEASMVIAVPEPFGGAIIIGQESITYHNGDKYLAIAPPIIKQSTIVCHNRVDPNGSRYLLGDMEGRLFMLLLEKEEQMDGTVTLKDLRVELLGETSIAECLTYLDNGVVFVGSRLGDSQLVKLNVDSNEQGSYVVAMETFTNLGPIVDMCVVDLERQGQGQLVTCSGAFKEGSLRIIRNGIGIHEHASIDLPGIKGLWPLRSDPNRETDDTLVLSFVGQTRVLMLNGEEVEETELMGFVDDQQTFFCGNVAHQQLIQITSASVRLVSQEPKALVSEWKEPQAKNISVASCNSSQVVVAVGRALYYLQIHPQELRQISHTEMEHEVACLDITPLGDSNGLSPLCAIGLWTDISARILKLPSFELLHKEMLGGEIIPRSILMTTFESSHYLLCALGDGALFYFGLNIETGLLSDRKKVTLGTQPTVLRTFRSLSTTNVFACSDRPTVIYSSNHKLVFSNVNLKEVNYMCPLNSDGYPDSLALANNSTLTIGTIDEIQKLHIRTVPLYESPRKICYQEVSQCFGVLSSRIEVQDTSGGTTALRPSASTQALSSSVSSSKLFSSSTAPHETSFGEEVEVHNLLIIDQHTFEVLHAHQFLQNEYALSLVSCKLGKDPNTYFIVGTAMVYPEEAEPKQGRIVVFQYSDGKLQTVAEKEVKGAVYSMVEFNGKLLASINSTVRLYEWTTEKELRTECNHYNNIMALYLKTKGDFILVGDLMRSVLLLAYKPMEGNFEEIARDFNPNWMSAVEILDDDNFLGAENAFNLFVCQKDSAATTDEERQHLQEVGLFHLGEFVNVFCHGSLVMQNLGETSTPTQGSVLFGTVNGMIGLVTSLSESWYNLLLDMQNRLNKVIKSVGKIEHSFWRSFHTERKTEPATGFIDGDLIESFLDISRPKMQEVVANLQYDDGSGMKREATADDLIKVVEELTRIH
T2 sequence (O95785 whole entry): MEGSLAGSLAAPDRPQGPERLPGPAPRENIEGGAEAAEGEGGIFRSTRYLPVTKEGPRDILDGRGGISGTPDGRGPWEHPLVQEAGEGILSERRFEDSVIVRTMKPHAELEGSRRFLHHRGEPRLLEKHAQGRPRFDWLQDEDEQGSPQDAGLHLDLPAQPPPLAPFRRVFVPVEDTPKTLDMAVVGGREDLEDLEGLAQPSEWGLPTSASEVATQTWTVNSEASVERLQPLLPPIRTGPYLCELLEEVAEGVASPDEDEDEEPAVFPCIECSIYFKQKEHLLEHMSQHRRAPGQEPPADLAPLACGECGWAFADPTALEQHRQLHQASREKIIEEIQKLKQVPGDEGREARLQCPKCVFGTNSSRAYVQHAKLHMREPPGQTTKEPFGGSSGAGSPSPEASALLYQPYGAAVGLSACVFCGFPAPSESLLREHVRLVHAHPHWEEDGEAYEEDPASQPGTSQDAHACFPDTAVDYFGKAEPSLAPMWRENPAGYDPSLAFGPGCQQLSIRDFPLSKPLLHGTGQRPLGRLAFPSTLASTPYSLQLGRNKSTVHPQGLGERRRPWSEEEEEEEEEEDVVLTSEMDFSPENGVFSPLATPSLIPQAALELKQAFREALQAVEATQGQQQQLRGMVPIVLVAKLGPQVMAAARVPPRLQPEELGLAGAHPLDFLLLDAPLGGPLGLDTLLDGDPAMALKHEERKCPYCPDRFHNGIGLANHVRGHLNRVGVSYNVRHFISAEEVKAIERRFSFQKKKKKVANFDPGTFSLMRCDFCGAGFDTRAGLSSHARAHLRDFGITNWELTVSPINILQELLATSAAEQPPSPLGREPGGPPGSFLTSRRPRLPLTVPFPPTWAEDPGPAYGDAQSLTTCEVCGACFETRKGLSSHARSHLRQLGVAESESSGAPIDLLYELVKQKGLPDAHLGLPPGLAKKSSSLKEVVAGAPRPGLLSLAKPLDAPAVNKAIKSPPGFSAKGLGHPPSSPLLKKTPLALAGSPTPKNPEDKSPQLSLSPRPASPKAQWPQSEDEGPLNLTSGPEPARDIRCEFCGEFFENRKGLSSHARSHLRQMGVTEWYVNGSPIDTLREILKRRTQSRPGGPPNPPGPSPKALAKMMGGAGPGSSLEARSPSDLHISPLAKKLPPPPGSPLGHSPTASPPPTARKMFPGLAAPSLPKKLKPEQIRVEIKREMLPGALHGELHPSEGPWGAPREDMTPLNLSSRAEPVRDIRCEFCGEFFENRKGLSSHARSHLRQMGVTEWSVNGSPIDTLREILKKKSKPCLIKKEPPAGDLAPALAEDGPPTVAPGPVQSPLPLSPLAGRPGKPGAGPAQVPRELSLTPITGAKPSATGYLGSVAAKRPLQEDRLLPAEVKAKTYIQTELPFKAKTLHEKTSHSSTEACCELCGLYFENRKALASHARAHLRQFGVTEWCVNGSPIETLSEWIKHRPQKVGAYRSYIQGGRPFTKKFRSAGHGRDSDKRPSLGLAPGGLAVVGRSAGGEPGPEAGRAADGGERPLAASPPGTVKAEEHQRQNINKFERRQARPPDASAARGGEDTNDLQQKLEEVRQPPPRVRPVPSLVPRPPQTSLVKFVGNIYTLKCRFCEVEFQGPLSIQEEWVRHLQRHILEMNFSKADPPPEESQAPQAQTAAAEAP
T2 sequence (Q96SW2 whole entry): as the sequence (Q96SW2 whole entry) above
T2 sequence (Q16531 whole entry partner): as the sequence (Q16531 whole entry partner) above

For `COc1cc(-c2cc3c(cc2Nc2cccc4c2C(=O)N([C@H]2CCC(=O)NC2=O)C4=O)N(C)C(=O)CO3)ccn1` [Compound 17, (S)-2-(2,6-dioxopiperidin-3-yl)-4-((7-(2-methoxypyridin-4-yl)-4-methyl-3-oxo-3,4-dihydro-2H-benzo[b][1,4]oxazin-6-yl)amino)isoindoline-1,3-dione], the “HBF AUC” value in the experiment on HbF was “+++ (+++ = AUC ≥ 150)”. Moreover, the results for the DC50 at ZBTB7A and on WIZ were 18 nM and 13 nM, respectively.

As to `Cc1cc(-c2c(Nc3cccc4c3C(=O)N([C@H]3CCC(=O)NC3=O)C4=O)cc3c(c2F)CCC(=O)N3C)ccn1` [Compound 90, (S)-2-(2,6-dioxopiperidin-3-yl)-4-((5-fluoro-1-methyl-6-(2-methylpyridin-4-yl)-2-oxo-1,2,3,4-tetrahydroquinolin-7-yl)amino)isoindoline-1,3-dione], in the experiment with HbF, the “HBF AUC” value was “++ (++ = 100 ≤ AUC < 150)”. Also, the DC50 at ZBTB7A was determined as 24 nM; at WIZ, 14 nM.

On to `Cc1cc(-c2c(Nc3cccc4c3C(=O)N([C@H]3CCC(=O)NC3=O)C4=O)cc3c(c2F)C(C)OC(=O)N3C)ccn1` (stereo partly drawn) [Compound 79, 2-((S)-2,6-dioxopiperidin-3-yl)-4-((5-fluoro-1,4-dimethyl-6-(2-methylpyridin-4-yl)-2-oxo-1,4-dihydro-2H-benzo[d][1,3]oxazin-7-yl)amino)isoindoline-1,3-dione], for which the “HBF AUC” value in the experiment on HbF was “+ (+ = 15 ≤ AUC < 100)”. Besides, the DC50 on ZBTB7A turned out to be 28 nM; at WIZ it was 27 nM.

Regarding `CN1C(=O)COc2cc([C@H]3CC[C@H](C#N)CC3)c(Nc3cccc4c3C(=O)N([C@H]3CCC(=O)NC3=O)C4=O)cc21` [Compound 68, (1S,4r)-4-(6-((2-((S)-2,6-dioxopiperidin-3-yl)-1,3-dioxoisoindolin-4-yl)amino)-4-methyl-3-oxo-3,4-dihydro-2H-benzo[b][1,4]oxazin-7-yl)cyclohexane-1-carbonitrile], the “HBF AUC” value with HbF is listed as “+++ (+++ = AUC ≥ 150)”. The DC50 is 6 nM at ZBTB7A and 3 nM on WIZ.

Regarding `Cc1cc(-c2c(Nc3cccc4c3C(=O)N(C3CCC(=O)NC3=O)C4=O)cc3c(c2F)OCC(=O)N3C)ccn1` (stereo not drawn) [Compound 80, 2-(2,6-dioxopiperidin-3-yl)-4-((8-fluoro-4-methyl-7-(2-methylpyridin-4-yl)-3-oxo-3,4-dihydro-2H-benzo[b][1,4]oxazin-6-yl)amino)isoindoline-1,3-dione], the “HBF AUC” value in the experiment on HbF was “++ (++ = 100 ≤ AUC < 150)”. In addition, the values for the DC50 at ZBTB7A and on WIZ were 38 nM and 29 nM, respectively.

Regarding `Cc1cc(-c2cc3c(cc2Nc2cccc4c2C(=O)N([C@H]2CCC(=O)NC2=O)C4=O)N(C)[C@@H](C)CO3)ccn1` [Compound 4, 4-(((S)-3,4-dimethyl-7-(2-methylpyridin-4-yl)-3,4-dihydro-2H-benzo[b][1,4]oxazin-6-yl)amino)-2-((S)-2,6-dioxopiperidin-3-yl)isoindoline-1,3-dione], the “HBF AUC” value in the experiment with HbF is listed as “+++ (+++ = AUC ≥ 150)”. The DC50 at ZBTB7A was 26 nM; on WIZ, 83 nM.

Regarding `Cc1cc(-c2cc3c(cc2Nc2cccc4c2C(=O)N([C@H]2CCC(=O)NC2=O)C4=O)N(C)C(=O)O[C@H]3C)c(F)cn1` [Compound 73, 2-((S)-2,6-dioxopiperidin-3-yl)-4-(((S)-6-(5-fluoro-2-methylpyridin-4-yl)-1,4-dimethyl-2-oxo-1,4-dihydro-2H-benzo[d][1,3]oxazin-7-yl)amino)isoindoline-1,3-dione], in the experiment with HbF, the “HBF AUC” value was “++ (++ = 100 ≤ AUC < 150)”. Moreover, the DC50 at ZBTB7A stood at 11 nM; on WIZ, 12 nM.

`CCO[C@H]1CC[C@H](c2cc3c(cc2Nc2cccc4c2C(=O)N([C@H]2CCC(=O)NC2=O)C4=O)N(C)C(=O)[C@H](C)O3)CC1` [Compound 46, 2-((S)-2,6-dioxopiperidin-3-yl)-4-(((S)-7-((1r,4S)-4-ethoxycyclohexyl)-2,4-dimethyl-3-oxo-3,4-dihydro-2H-benzo[b][1,4]oxazin-6-yl)amino)isoindoline-1,3-dione]: in the experiment on HbF, the “HBF AUC” value is listed as “++ (++ = 100 ≤ AUC < 150)”. Further, the DC50 at ZBTB7A amounted to 7 nM; on WIZ it was 2 nM.

Turning to `CCN1C(=O)COc2cc(-c3ccnc(C)c3)c(Nc3cccc4c3C(=O)N([C@H]3CCC(=O)NC3=O)C4=O)cc21` [Compound 25, (S)-2-(2,6-dioxopiperidin-3-yl)-4-((4-ethyl-7-(2-methylpyridin-4-yl)-3-oxo-3,4-dihydro-2H-benzo[b][1,4]oxazin-6-yl)amino)isoindoline-1,3-dione], in the experiment with HbF, the “HBF AUC” value is listed as “+ (+ = 15 ≤ AUC < 100)”. In addition, the DC50 on ZBTB7A stood at 24 nM; at WIZ, 18 nM.

For the compound `COc1nccc(-c2cc3c(cc2Nc2cccc4c2C(=O)N([C@H]2CCC(=O)NC2=O)C4=O)N(C)C(=O)CO3)c1F` [Compound 34, (S)-2-(2,6-dioxopiperidin-3-yl)-4-((7-(3-fluoro-2-methoxypyridin-4-yl)-4-methyl-3-oxo-3,4-dihydro-2H-benzo[b][1,4]oxazin-6-yl)amino)isoindoline-1,3-dione], the “HBF AUC” value with HbF is recorded as “+++ (+++ = AUC ≥ 150)”. Also, the DC50 on ZBTB7A and on WIZ was 11 nM throughout.

Regarding `Cc1cc(-c2cc3c(cc2Nc2cccc4c2C(=O)N([C@H]2CCC(=O)NC2=O)C4=O)N(C2CC2)C(=O)CC3)ccn1` [Compound 88, (S)-4-((1-cyclopropyl-6-(2-methylpyridin-4-yl)-2-oxo-1,2,3,4-tetrahydroquinolin-7-yl)amino)-2-(2,6-dioxopiperidin-3-yl)isoindoline-1,3-dione], the “HBF AUC” value with HbF is reported as “+ (+ = 15 ≤ AUC < 100)”. For the same compound, the DC50 at ZBTB7A worked out at 60 nM; at WIZ it was 8 nM.

For `Cc1cc(-c2cc3c(cc2Nc2cccc4c2C(=O)N([C@H]2CCC(=O)NC2=O)C4=O)N(C)C(=O)O[C@@H]3C)c(F)cn1` [Compound 74, 2-((S)-2,6-dioxopiperidin-3-yl)-4-(((R)-6-(5-fluoro-2-methylpyridin-4-yl)-1,4-dimethyl-2-oxo-1,4-dihydro-2H-benzo[d][1,3]oxazin-7-yl)amino)isoindoline-1,3-dione], the “HBF AUC” value in the experiment on HbF was “++ (++ = 100 ≤ AUC < 150)”. Besides, the results for the DC50 on ZBTB7A and on WIZ were 10 nM and 11 nM, respectively.

On to `COc1ccc(-c2cc3c(cc2Nc2cccc4c2C(=O)N([C@H]2CCC(=O)NC2=O)C4=O)N(C)C(=O)[C@H](C)O3)cn1` [Compound 40, 2-((S)-2,6-dioxopiperidin-3-yl)-4-(((S)-7-(6-methoxypyridin-3-yl)-2,4-dimethyl-3-oxo-3,4-dihydro-2H-benzo[b][1,4]oxazin-6-yl)amino)isoindoline-1,3-dione], for which the “HBF AUC” value in the experiment on HbF is reported as “+ (+ = 15 ≤ AUC < 100)”. In addition, the DC50 came out at 16 nM on ZBTB7A and 12 nM on WIZ.

In the case of `CN1C(=O)CCc2cc(C3CCN(C(=O)C4CC4)CC3)c(Nc3cccc4c3C(=O)N(C3CCC(=O)NC3=O)C4=O)cc21` (stereo not drawn) [Compound 93, 4-((6-(1-(cyclopropanecarbonyl)piperidin-4-yl)-1-methyl-2-oxo-1,2,3,4-tetrahydroquinolin-7-yl)amino)-2-(2,6-dioxopiperidin-3-yl)isoindoline-1,3-dione], the “HBF AUC” value in the experiment with HbF was “++ (++ = 100 ≤ AUC < 150)”. The DC50 on ZBTB7A came to 15 nM; on WIZ it was 4 nM.

In the case of `Cc1cc(-c2cc3c(cc2Nc2cccc4c2C(=O)N([C@H]2CCC(=O)NC2=O)C4=O)N(C)C(=O)[C@@H](C)O3)cc(C(F)F)n1` [Compound 49, 4-(((R)-7-(2-(difluoromethyl)-6-methylpyridin-4-yl)-2,4-dimethyl-3-oxo-3,4-dihydro-2H-benzo[b][1,4]oxazin-6-yl)amino)-2-((S)-2,6-dioxopiperidin-3-yl)isoindoline-1,3-dione], the “HBF AUC” value in the experiment with HbF is “++ (++ = 100 ≤ AUC < 150)”. For the same compound, the DC50 on ZBTB7A was found to be 71 nM; at WIZ, 39 nM.

Take `Cc1cc(-c2cc3c(cc2Nc2cccc4c2C(=O)N([C@H]2CCC(=O)NC2=O)C4=O)N(C)C(=O)[C@H](C)O3)ccn1` [Compound 5, 4-(((S)-2,4-dimethyl-7-(2-methylpyridin-4-yl)-3-oxo-3,4-dihydro-2H-benzo[b][1,4]oxazin-6-yl)amino)-2-((S)-2,6-dioxopiperidin-3-yl)isoindoline-1,3-dione]: the “HBF AUC” value in the experiment with HbF is recorded as “+ (+ = 15 ≤ AUC < 100)”. For the same compound, the results for the DC50 on ZBTB7A and at WIZ were 19 nM and 15 nM, respectively.

Take `CC(=O)N1CCC(c2cc3c(cc2Nc2cccc4c2C(=O)N([C@H]2CCC(=O)NC2=O)C4=O)N(C)C(=O)[C@@H](C)O3)CC1` [Compound 32, 4-(((R)-7-(1-acetylpiperidin-4-yl)-2,4-dimethyl-3-oxo-3,4-dihydro-2H-benzo[b][1,4]oxazin-6-yl)amino)-2-((S)-2,6-dioxopiperidin-3-yl)isoindoline-1,3-dione]: the “HBF AUC” value in the experiment on HbF is “+++ (+++ = AUC ≥ 150)”. In addition, the DC50 at ZBTB7A worked out at 14 nM; at WIZ, 5 nM.
